Patent publication US10617697B2, “Extracts of edible fungi enriched in vitamin D and compostions thereof and their use in the treatment of immune-related disorders” (GAVISH-GALILEE BIO APPLICATIONS LTD, priority 2015, dated 2020)

System: immune-mediated hepatitis harboring mice
Experiment: ConA hepatitis in mice, serum liver enzymes after oral pre-treatment
Assay type: in vivo, C57BL/6 mice
Conditions: for ALT serum levels: serum 16 hours after ConA
Protocol: Male C57BL/6 mice (11-12 weeks old) were obtained from Harlan Laboratories (Jerusalem, Israel) and maintained in the Animal Core of the Hadassah-Hebrew University Medical School. Mice were administered standard laboratory chow and water ad libitum and kept in a 12 hour light/dark cycle. Animal experiments were carried out according to the guidelines of the Hebrew University-Hadassah Institutional Committee for Care and Use of Laboratory Animals and with the committee's approval.
Concanavalin A (ConA, MP Biomedicals, USA) was dissolved in 50 mM Tris pH 7, 150 mM NaCl, 4 mM CaCl2 and was injected into the tail vein at a dose of 500 μg/mouse (15 mg/kg) in the first experiment, and 400 μg/mouse in the second experiment. Mice were sacrificed 16 hours following ConA injection. Blood and liver tissue were collected for further analysis
Two consecutive experiments were conducted. In the first study, 4 groups of mice were studied (n=5-6 mice/group). Mice in control group were treated 2 hours before ConA injection with DDW (di distilled water). The first treated group received vitamin D oral supplement (1 IU of vitamin D in saline) twice daily for 3 days prior to Concanavalin A-induced immune liver damage. The second treated group was treated orally with crude freeze-dried biomass derived from Lentinula edodes (LE) edible mushrooms (7.5 mg of mushrooms) at the same timing and frequency, while the third treated group was treated with vitamin D enriched LE (7.5 mg of freeze-dried mushrooms containing 1.125 IU of vitamin D). In a subsequent study, four groups of mice (n=5-7 mice/group) were treated by the same protocol detailed above, but the frequency of the oral treatment was increased from two to three times daily.
Serum was obtained from individual mice after sacrifice. The serum aspartate aminotransferase (AST) and alanine aminotransferase (ALT) levels were determined with an automatic analyzer.

C=C1CC[C@H](O)C/C1=C/C=C1\CCC[C@]2(C)[C@@H]([C@H](C)/C=C/[C@H](C)C(C)C)CC[C@@H]12 [vitamin D, ergocalciferol]
proportion of severe liver injury (defined as ALT>2611 U/L) (first experiment, oral twice daily for 3 days before ConA): 60%
ALT serum levels (first experiment, oral twice daily for 3 days before ConA 500 μg/mouse): 2802 U/L
proportion of severe liver injury (defined as ALT >2000 U/L) (second experiment, oral three times daily for 3 days before ConA): 100%
proportion of severe liver injury by AST (defined as AST>2000 U/L) (second experiment, oral three times daily for 3 days before ConA, data not shown): 100%
ALT serum levels (second study, oral three times daily for 3 days before ConA 400 μg/mouse): 4040 U/L
